Source: patent publication US6355799B1, “Substituted benzene compounds, process for their preparation, and herbicidal and defoliant compositions containing them” (ISK Americas Incorporated, priority 1997, dated 2002)

Tests used:
Assay type in all cases: in vivo
[1] = test system: large crabgrass (Digitaria sanguinalis, DIGSA); experiment: Pre-emerge test, greenhouse herbicide activity screening; details: for Pre-emerge herbicidal activity, phytotoxicity rating DIGSA: rating scale 0-100, 14 days after application; for phytotoxicity rating DIGSA: pre-emerge, 14 days after application, scale 0-100
Excerpt: (§1) A standard greenhouse herbicide activity screening system was used to evaluate the herbicidal efficacy and crop safety of these test compounds. Seven broadleaf weed species including redroot pigweed (Amaranthus retroflexus, AMARE, velvetleaf (Abutilon theophrasti, ABUTH), sicklepod (Cassia obtusifolia, CASOB), ivyleaf morningglory (Ipomoea hederacea, IPOHE), lambsquarters (Chenopodium album, CHEAL), common ragweed (Ambrosia artemisizfolia L., AMBEL), and cocklebur (Xanthium strumarium, XANST) were used as test species. Four grass weed species including green foxtail (Setaria viridis, SETVI), barnyardgrass (Echinochloa crus-galli, ECHCG), johnsongrass (Sorghum halepense, SORHA), and large crabgrass (Digitaria sanguinalis, DIGSA) were also used. In addition, three crop species, field corn (Zea mays L., var. Dekalb 535, CORN), soybean (Glycine max L., var. Pella 86, SOY), and is upland rice (Oryza sp., var. Tebonnet, RICE) were included.
(§2) All plants were grown in 10 cm square plastic pots which were filled with a sandy loam soil mix. For pre-emerge tests, seeds were planted one day prior to application of the test compounds. For post-emerge tests, seeds were planted 8-21 days prior to the test to allow emergence and good foliage development prior to application of the test substances. At the time of the post-emerge application, plants of all species were usually at the 2-3 leaf stage of development.
(§3) All test compounds Were dissolved in acetone and applied to the test units in a volume of 187 l /ha. Test materials were applied at rates ranging from 15 g ai/ha to 1000 g ai/ha using a track sprayer equipped with a TJ8001E even flow flat fan spray nozzle. Plants were arranged on a shelf so that the top of the canopy (post-emerge) or top of the soil surface (pre-emerge) was 40-45 cm below the nozzle. Pressurized air was used to force the test solution through the nozzle as it was mechanically advanced (via electrically driven chain drive) over the top of all test plants/pots. This application simulates a typical commercial field herbicide application.
(§4) In the post-emerge test, a commercial non-ionic surfactant was also included (0.25% v/v) to enhance wetting of the leaf surfaces of target plants. Immediately after application, test units of the pre-emerge applications were watered at the soil surface to incorporate the test materials. Subsequently, these test units were bottom-watered. Post-emerge test units were always bottom-watered.
(§5) At 14 days after application of the test materials, phytotoxicity ratings were recorded. A rating scale of 0-100 was used as previously described in Research Methods in Weed Science, 2nd edition, B. Truelove, Ed., Southern Weed Science Society, Auburn University, Auburn, Ala. 1977. Briefly, “0” corresponds to no damage and “100” corresponds to complete death of all plants in the test unit. This scale was used both to determine efficacy against weed species and damage to crop species. Herbicide activity data for various compounds of this invention, which are shown by compound No. in Tables 1-8, are shown in Tables 11 and 12.

[2] = test system: sicklepod (Cassia obtusifolia, CASOB); experiment: as above; details: for Pre-emerge herbicidal activity, phytotoxicity rating CASOB: rating scale 0-100, 14 days after application; for phytotoxicity rating CASOB: pre-emerge, 14 days after application, scale 0-100
Excerpt: as §1, §2, §3, §4, §5

[3] = test system: lambsquarters (Chenopodium album, CHEAL); experiment: as above; details: for Pre-emerge herbicidal activity, phytotoxicity rating CHEAL: rating scale 0-100, 14 days after application; for phytotoxicity rating CHEAL: pre-emerge, 14 days after application, scale 0-100
Excerpt: as §1, §2, §3, §4, §5

[4] = test system: barnyardgrass (Echinochloa crus-galli, ECHCG); experiment: as above; details: for Pre-emerge herbicidal activity, phytotoxicity rating ECHCG: rating scale 0-100, 14 days after application; for phytotoxicity rating ECHCG: pre-emerge, 14 days after application, scale 0-100
Excerpt: as §1, §2, §3, §4, §5

[5] = test system: ivyleaf morningglory (Ipomoea hederacea, IPOHE); experiment: as above; details: for Pre-emerge herbicidal activity, phytotoxicity rating IPOHE: rating scale 0-100, 14 days after application; for phytotoxicity rating IPOHE: pre-emerge, 14 days after application, scale 0-100
Excerpt: as §1, §2, §3, §4, §5

[6] = test system: green foxtail (Setaria viridis, SETVI); experiment: as above; details: for Pre-emerge herbicidal activity, phytotoxicity rating SETVI: rating scale 0-100, 14 days after application; for phytotoxicity rating SETVI: pre-emerge, 14 days after application, scale 0-100
Excerpt: as §1, §2, §3, §4, §5

[7] = test system: velvetleaf (Abutilon theophrasti, ABUTH); experiment: as above; details: for Pre-emerge herbicidal activity, phytotoxicity rating ABUTH: rating scale 0-100, 14 days after application; for phytotoxicity rating ABUTH: pre-emerge, 14 days after application, scale 0-100
Excerpt: as §1, §2, §3, §4, §5

[8] = test system: redroot pigweed (Amaranthus retroflexus, AMARE); experiment: Post-emerge test, greenhouse herbicide activity screening; details: 14 days after application; for Post-emerge Herbicidal Activity, phytotoxicity rating AMARE: rating scale 0-100 (0 no damage, 100 complete death); for AMARE phytotoxicity rating: post-emerge, rating scale 0-100
Excerpt: as §1, §2, §3, §4, §5

[9] = test system: large crabgrass (Digitaria sanguinalis, DIGSA); experiment: as above; details: 14 days after application; for Post-emerge Herbicidal Activity, phytotoxicity rating DIGSA: rating scale 0-100 (0 no damage, 100 complete death); for DIGSA phytotoxicity rating: post-emerge, rating scale 0-100
Excerpt: as §1, §2, §3, §4, §5

[10] = test system: sicklepod (Cassia obtusifolia, CASOB); experiment: as above; details: 14 days after application; for Post-emerge Herbicidal Activity, phytotoxicity rating CASOB: rating scale 0-100 (0 no damage, 100 complete death); for CASOB phytotoxicity rating: post-emerge, rating scale 0-100
Excerpt: as §1, §2, §3, §4, §5

[11] = test system: lambsquarters (Chenopodium album, CHEAL); experiment: as above; details: 14 days after application; for Post-emerge Herbicidal Activity, phytotoxicity rating CHEAL: rating scale 0-100 (0 no damage, 100 complete death); for CHEAL phytotoxicity rating: post-emerge, rating scale 0-100
Excerpt: as §1, §2, §3, §4, §5

[12] = test system: barnyardgrass (Echinochloa crus-galli, ECHCG); experiment: as above; details: 14 days after application; for Post-emerge Herbicidal Activity, phytotoxicity rating ECHCG: rating scale 0-100 (0 no damage, 100 complete death); for ECHCG phytotoxicity rating: post-emerge, rating scale 0-100
Excerpt: as §1, §2, §3, §4, §5

[13] = test system: ivyleaf morningglory (Ipomoea hederacea, IPOHE); experiment: as above; details: 14 days after application; for Post-emerge Herbicidal Activity, phytotoxicity rating IPOHE: rating scale 0-100 (0 no damage, 100 complete death); for IPOHE phytotoxicity rating: post-emerge, rating scale 0-100
Excerpt: as §1, §2, §3, §4, §5

[14] = test system: green foxtail (Setaria viridis, SETVI); experiment: as above; details: 14 days after application; for Post-emerge Herbicidal Activity, phytotoxicity rating SETVI: rating scale 0-100 (0 no damage, 100 complete death); for SETVI phytotoxicity rating: post-emerge, rating scale 0-100
Excerpt: as §1, §2, §3, §4, §5

[15] = test system: velvetleaf (Abutilon theophrasti, ABUTH); experiment: as above; details: 14 days after application; for Post-emerge Herbicidal Activity, phytotoxicity rating ABUTH: rating scale 0-100 (0 no damage, 100 complete death); for ABUTH phytotoxicity rating: post-emerge, rating scale 0-100
Excerpt: as §1, §2, §3, §4, §5

[16] = test system: redroot pigweed (Amaranthus retroflexus, AMARE); experiment: Pre-emerge test, greenhouse herbicide activity screening; details: for Pre-emerge herbicidal activity, phytotoxicity rating AMARE: rating scale 0-100, 14 days after application; for phytotoxicity rating AMARE: pre-emerge, 14 days after application, scale 0-100
Excerpt: as §1, §2
as §3, with “Test materials were applied at rates ranging from 15 g ai/ha to 1000 g ai/ha using a track sprayer equipped with a TJ8001E even flow flat fan spray nozzle.” left out
as §4, §5

CCOC(=O)C(Cl)Cc1c(OC)c(Cl)cc(F)c1-n1c(=O)cc(C(F)(F)F)n(C)c1=O (single isomer, unassigned) [Compound 14-4, 3-{4-chloro-2-[2-chloro-2-(ethoxycarbonyl)ethyl]-6-fluoro-3-methoxyphenyl}-1-methyl-6-trifluoromethyl-2,4(1H, 3H)-pyrimidinedione] was tested, and the “Pre-emerge herbicidal activity, phytotoxicity rating DIGSA” value ([1]; 63 g ai/ha) was 20, the “Pre-emerge herbicidal activity, phytotoxicity rating DIGSA” value ([1]; 250 g ai/ha) was 95 and the “Pre-emerge herbicidal activity, phytotoxicity rating CASOB” value ([2]; 63 g ai/ha) was 20. For the same compound, the “Pre-emerge herbicidal activity, phytotoxicity rating CASOB” value ([2]; 250 g ai/ha) was 20, the “Pre-emerge herbicidal activity, phytotoxicity rating CHEAL” value ([3]; 63 g ai/ha) was 60 and the “Pre-emerge herbicidal activity, phytotoxicity rating CHEAL” value ([3]; 250 g ai/ha) was 100. The “Pre-emerge herbicidal activity, phytotoxicity rating ECHCG” value ([4]; 63 g ai/ha) was 0, the “Pre-emerge herbicidal activity, phytotoxicity rating ECHCG” value ([4]; 250 g ai/ha) was 0 and the “Pre-emerge herbicidal activity, phytotoxicity rating IPOHE” value ([5]; 63 g ai/ha) was 0. For the same compound, the “Pre-emerge herbicidal activity, phytotoxicity rating IPOHE” value ([5]; 250 g ai/ha) was 70, the “Pre-emerge herbicidal activity, phytotoxicity rating SETVI” value ([6]; 63 g ai/ha) was 10 and the “Pre-emerge herbicidal activity, phytotoxicity rating SETVI” value ([6]; 250 g ai/ha) was 40. The “Pre-emerge herbicidal activity, phytotoxicity rating ABUTH” value ([7]; 63 g ai/ha) was 50, the “Pre-emerge herbicidal activity, phytotoxicity rating ABUTH” value ([7]; 250 g ai/ha) was 80 and the “Post-emerge Herbicidal Activity, phytotoxicity rating AMARE” value ([8]; Rate 63 g ai/ha) was 100. For the same compound, the “Post-emerge Herbicidal Activity, phytotoxicity rating AMARE” value ([8]; Rate 250 g ai/ha) was 100, the “Post-emerge Herbicidal Activity, phytotoxicity rating DIGSA” value ([9]; Rate 63 g ai/ha) was 75 and the “Post-emerge Herbicidal Activity, phytotoxicity rating DIGSA” value ([9]; Rate 250 g ai/ha) was 95. The “Post-emerge Herbicidal Activity, phytotoxicity rating CASOB” value ([10]; Rate 63 g ai/ha) was 50, the “Post-emerge Herbicidal Activity, phytotoxicity rating CASOB” value ([10]; Rate 250 g ai/ha) was 100 and the “Post-emerge Herbicidal Activity, phytotoxicity rating CHEAL” value ([11]; Rate 63 g ai/ha) was 100. For the same compound, the “Post-emerge Herbicidal Activity, phytotoxicity rating CHEAL” value ([11]; Rate 250 g ai/ha) was 100, the “Post-emerge Herbicidal Activity, phytotoxicity rating ECHCG” value ([12]; Rate 63 g ai/ha) was 85 and the “Post-emerge Herbicidal Activity, phytotoxicity rating ECHCG” value ([12]; Rate 250 g ai/ha) was 99. The “Post-emerge Herbicidal Activity, phytotoxicity rating IPOHE” value ([13]; Rate 63 g ai/ha) was 50, the “Post-emerge Herbicidal Activity, phytotoxicity rating IPOHE” value ([13]; Rate 250 g ai/ha) was 60 and the “Post-emerge Herbicidal Activity, phytotoxicity rating SETVI” value ([14]; Rate 63 g ai/ha) was 30. For the same compound, the “Post-emerge Herbicidal Activity, phytotoxicity rating SETVI” value ([14]; Rate 250 g ai/ha) was 65, the “Post-emerge Herbicidal Activity, phytotoxicity rating ABUTH” value ([15]; Rate 63 g ai/ha) was 80 and the “Post-emerge Herbicidal Activity, phytotoxicity rating ABUTH” value ([15]; Rate 250 g ai/ha) was 100. For the same compound, the “Pre-emerge herbicidal activity, phytotoxicity rating AMARE” value ([16]; 63 g ai/ha) was 90 and the “Pre-emerge herbicidal activity, phytotoxicity rating AMARE” value ([16]; 250 g ai/ha) was 100.

In the case of Cn1c(C(F)(F)F)cc(=O)n(-c2ccc(Cl)cc2NC(=O)c2ccc3ccccc3c2)c1=O [Compound 2-131, 3-[4-chloro-2-(2-naphthoylamino)phenyl]-1-methyl-6-trifluoromethyl-2,4(1H, 3H)-pyrimidinedione], the “phytotoxicity rating DIGSA” value ([1]; 63 g ai/ha) is reported as 40, the “phytotoxicity rating DIGSA” value ([1]; 250 g ai/ha) is reported as 80 and the “phytotoxicity rating CASOB” value ([2]; 63 g ai/ha) is reported as 60. The “phytotoxicity rating CASOB” value ([2]; 250 g ai/ha) was 95, the “phytotoxicity rating CHEAL” value ([3]; 63 g ai/ha) was 90 and the “phytotoxicity rating CHEAL” value ([3]; 250 g ai/ha) was 100. The “phytotoxicity rating ECHCG” value ([4]; 63 g ai/ha) was 10, the “phytotoxicity rating ECHCG” value ([4]; 250 g ai/ha) was 60 and the “phytotoxicity rating IPOHE” value ([5]; 63 g ai/ha) was 30. For the same compound, the “phytotoxicity rating IPOHE” value ([5]; 250 g ai/ha) was 85, the “phytotoxicity rating SETVI” value ([6]; 63 g ai/ha) was 40 and the “phytotoxicity rating SETVI” value ([6]; 250 g ai/ha) was 90. The “phytotoxicity rating ABUTH” value ([7]; 63 g ai/ha) was 85, the “phytotoxicity rating ABUTH” value ([7]; 250 g ai/ha) was 100 and the AMARE phytotoxicity rating ([8]; 63 g ai/ha) was 100. The AMARE phytotoxicity rating ([8]; 250 g ai/ha) was 100, the DIGSA phytotoxicity rating ([9]; 63 g ai/ha) was 30 and the DIGSA phytotoxicity rating ([9]; 250 g ai/ha) was 70. It also gave a CASOB phytotoxicity rating ([10]; 63 g ai/ha) of 80, a CASOB phytotoxicity rating ([10]; 250 g ai/ha) of 100 and a CHEAL phytotoxicity rating ([11]; 63 g ai/ha) of 100. It also gave a CHEAL phytotoxicity rating ([11]; 250 g ai/ha) of 100, an ECHCG phytotoxicity rating ([12]; 63 g ai/ha) of 30 and an ECHCG phytotoxicity rating ([12]; 250 g ai/ha) of 60. The IPOHE phytotoxicity rating ([13]; 63 g ai/ha) was 100, the IPOHE phytotoxicity rating ([13]; 250 g ai/ha) was 100 and the SETVI phytotoxicity rating ([14]; 63 g ai/ha) was 70. The SETVI phytotoxicity rating ([14]; 250 g ai/ha) was 90, the ABUTH phytotoxicity rating ([15]; 63 g ai/ha) was 100 and the ABUTH phytotoxicity rating ([15]; 250 g ai/ha) was 100. For the same compound, the “phytotoxicity rating AMARE” value ([16]; 63 g ai/ha) was 90 and the “phytotoxicity rating AMARE” value ([16]; 250 g ai/ha) was 95.
